Broadly, the GI50 is the concentration that inhibits growth by half.

In one test the test system is Lung cancer cell line. Put plainly: In vitro anticancer activity against human lung cancer cell line. The test is classed as functional.
Test [1] in a line: Compound evaluated for their ability to phosphorylate eIF2R. Details: unit not given here. The test is classed as functional.

Regarding `CN1C(=O)C(c2ccccc2)(c2ccccc2)c2ccccc21`, the concentration for 50% growth inhibition (GI50) in the test on Lung cancer cell line was over 20 µM.

`CC(C)(C)c1ccc(C2(c3ccc(O)cc3)C(=O)Nc3ccccc32)cc1` (stereo not given) displayed an Activity in test [1] of 2.01. In the test with Lung cancer cell line, this compound yielded a GI50 of 14 µM. Compound `O=C1Nc2ccc(Cl)cc2C1(c1ccccc1)c1ccccc1` yielded an Activity in test [1] of 0.61. In test [1], `COc1ccccc1C1(c2ccccc2)C(=O)Nc2ccccc21` (stereo not given) showed an Activity of 0.48. `CC(C)(C)c1ccc(O)c(C2(c3ccccc3)C(=O)Nc3ccc(I)cc32)c1` (stereo not given): the Activity in test [1] was determined as 1.4. As for `CC(C)(C)c1ccc(C2(c3ccccc3)C(=O)Nc3ccccc32)cc1` (stereo not given), the Activity in test [1] was 0.95. This compound also registered a GI50 in the test with Lung cancer cell line of 8 µM. As to `CCc1ccc2c(c1)C(c1ccccc1)(c1ccccc1)C(=O)N2`, the Activity in test [1] is 0.85. Moreover, in the test with Lung cancer cell line, the GI50 was over 20 µM. For `O=C1Nc2ccc([N+](=O)[O-])cc2C1(c1ccccc1)c1ccccc1`, the Activity in test [1] was determined as 1.2. In the test on Lung cancer cell line, this compound had a concentration for 50% growth inhibition (GI50) of 14 µM.

For the compound `CC(C)(C)c1ccc(C2(c3ccccc3O)C(=O)Nc3ccccc32)cc1` (stereo not given), in test [1], the Activity is 1.33. This compound yielded a GI50 with Lung cancer cell line of 7 µM. As for `O=C1Nc2ccc(S(=O)(=O)O)cc2C1(c1ccccc1)c1ccccc1`, the GI50 with Lung cancer cell line turned out to be 9 µM. For the compound `O=C1Nc2ccccc2C1(c1ccccc1)c1ccccc1O` (stereo not given), in test [1], the Activity was 0.56.

For the compound `O=C1Nc2ccc(Br)cc2C1(c1ccccc1)c1ccccc1`, the Activity in test [1] was determined as 0.79.

Turning to `O=C1Nc2cccc(Br)c2C1(c1ccccc1)c1ccccc1`, the Activity in test [1] was 0.84.

Consider `O=C1Nc2ccc(F)cc2C1(c1ccccc1)c1ccccc1`, for which the Activity in test [1] amounted to 0.44. As for `CC(C)(C)c1ccc(O)c(C2(c3ccccc3)C(=O)Nc3ccccc32)c1` (stereo not given), the Activity in test [1] came out at 2. The GI50 in the test on Lung cancer cell line was found to be 4 µM.

In the case of `O=C1Nc2cc(Br)ccc2C1(c1ccccc1)c1ccccc1`, the Activity in test [1] was 0.89. In test [1], `O=C1Nc2ccc(I)cc2C1(c1ccccc1)c1ccccc1` yielded an Activity of 1.31. For the same compound, in the test on Lung cancer cell line, it took 8 µM to inhibit growth by half (GI50). Consider `CC(C)(C)c1cccc(C2(c3ccccc3)C(=O)Nc3ccccc32)c1` (stereo not given), for which, in test [1], the Activity came to 1.04. The same compound gave a GI50 in the test with Lung cancer cell line of 4 µM. In test [1], `COc1ccccc1C1(c2ccc(C(C)(C)C)cc2)C(=O)Nc2ccccc21` (stereo not given) showed an Activity of 0.93. Compound `O=C1Nc2ccccc2C1(c1ccccc1)c1ccccc1` registered an Activity in test [1] of 1. Also, the GI50 in the test with Lung cancer cell line worked out at 13 µM. `O=C1Nc2ccccc2C1(c1ccccc1)c1ccc(O)cc1` (stereo not given) came in with an Activity in test [1] of 0.86.
